Data: patent US20240024273A1, “TOPICAL ADMINISTRATION OF 2-(DIETHYLAMINO)ETHYL 2-(4-ISOBUTYLPHENYL)PROPRIONATE FOR TREATMENT OF DISEASES” (TECHFIELDS PHARMA CO., LTD., priority 2020, published 2024)

Tests used:
Format in all cases: in vivo, human
[1] = test system: osteoarthritis of the knee; experiment: Second Phase 2 study: WOMAC difficulty performing daily activities (functional ability) subscale score; conditions: Week 12
Text: This is a Phase 2, multicenter, randomized, double blind (within dose), Ibuprofen-placebo controlled, parallel group, dose range finding study to evaluate the efficacy, safety, and PK of 2-(diethylamino)ethyl 2-(4-isobutylphenyl)propionate spray in adult subjects with clinically symptomatic OA of the knee. For subjects with bilateral knee pain, both knees will be treated, but the most symptomatic knee (ie, the most painful knee as measured by the Western Ontario and McMaster University Osteoarthritis Index [WOMAC® 3.1] pain subscale score at Screening) will be designated as the target knee for efficacy analyses. For subjects with unilateral knee pain, only the symptomatic (target) knee will be treated.
The VAS version of the WOMAC will be used for the Primary and Secondary Efficacy Endpoints. Efficacy endpoints will be assessed at Screening and Baseline (Day 1) and at the Week 2, Week 4, Week 8, and Week 12/EOS visits.
(§1) 4.9.2. Secondary Efficacy Endpoints: • 1. Change from Baseline in the WOMAC (VAS) pain subscale score for the target knee at 2, 8, and 12 weeks of treatment; • 2. Change from Baseline in the WOMAC (VAS) stiffness subscale scores for the target knee and WOMAC (VAS) functional ability subscale scores at 2, 4, 8, and 12 weeks of treatment; • 3. Change from Baseline in the overall WOMAC (VAS) score at 2, 4, 8, and 12 weeks of treatment; • 4. Subject's global assessment of disease status of the target knee at 2, 4, 8, and 12 weeks of treatment; • 5. Subject's global assessment of response to therapy of the target knee at 2, 4, 8, and 12 weeks of treatment; • 6. Amount of rescue medication (acetaminophen) consumed per day for target knee pain.
The Secondary Efficacy Endpoints, change from Baseline in the WOMAC subscale scores for pain, stiffness, and functional ability, and overall WOMAC score at 2, 4, 8, and 12 weeks of treatment, will be analyzed using the same methods as for the Primary Efficacy Endpoint.

[2] = test system: osteoarthritis of the knee; experiment: Second Phase 2 study: Subject Global Impression of Change (SGIC); conditions: Week 12; for SGIC, Good and Very good / SGIC, Poor and Very Poor / SGIC, fair: all subjects
Text: as §1

[3] = test system: osteoarthritis of the knee; experiment: Second Phase 2 study: Investigator's global assessment of disease status (IGADS); conditions: Week 12; for IGADS: Good and Very good / IGADS: Poor and Very Poor / IGADS: fair: first 130 subjects; for IGADS, Good and Very good / IGADS, Poor and Very Poor / IGADS, fair: all subjects
[4] = test system: osteoarthritis of the knee; experiment: Second Phase 2 study: Investigator's assessment of response to therapy (IART); conditions: Week 12; for IART: Good and Very good / IART: Poor and Very Poor / IART: fair: first 130 subjects; for IART, Good and Very good / IART, Poor and Very Poor / IART, fair: all subjects
Text: 4.9.3. Exploratory Efficacy Endpoints: • 1. Investigator's global assessment of response to therapy of the target knee at 2, 4, 8, and 12 weeks of treatment; • 2. Change from Baseline over time in overall WOMAC (VAS) score for the target knee after the treatment is stopped for 2 weeks.

[5] = 17.5 mg/knee BID (n = 19), first 130 subjects
[6] = all subjects, 4.375 mg/knee BID, n = 49
[7] = all subjects, 8.75 mg/knee BID, n = 54
[8] = all subjects, 17.5 mg/knee BID, n = 52
[9] = 4.375 mg/knee BID (n = 23), first 130 subjects
[10] = 8.75 mg/knee BID (n = 24), first 130 subjects

CCN(CC)CCOC(=O)C(C)c1ccc(CC(C)C)cc1 (stereo not drawn) [2-(diethylamino)ethyl 2-(4-isobutylphenyl)propionate]
WOMAC Difficulty Performing Daily Activities Subscale Scores, % of improvement from baseline [1, 5]: −58.2% | WOMAC Difficulty Performing Daily Activities Subscale Scores, Changes from Baseline (LS Mean) [1, 5]: −37.2 mm | WOMAC Difficulty Performing Daily Activities Subscale Scores, Different from oral ibuprofen (LS Mean) [1, 5]: −15.6 mm | WOMAC Difficulty Performing Daily Activities Subscale Scores, Different from placebo (LS Mean) [1, 5]: −19.1 mm | WOMAC Difficulty Performing Daily Activities Subscale Scores, Week 12 (LS Mean) [1, 5]: 26.7 mm | WOMAC Difficulty Performing Daily Activities Subscale Scores, % of improvement from Oral Ibuprofen [1, 6]: −1.3% | WOMAC Difficulty Performing Daily Activities Subscale Scores, % of improvement from Placebo [1, 6]: −5.6% | WOMAC Difficulty Performing Daily Activities Subscale Scores, % of improvement from baseline [1, 6]: −42.8% | WOMAC Difficulty Performing Daily Activities Subscale Scores, Changes from Baseline (LS Mean) [1, 6]: −25.4 mm | WOMAC Difficulty Performing Daily Activities Subscale Scores, Week 12 (LS Mean) [1, 6]: 33.9 mm | WOMAC Difficulty Performing Daily Activities Subscale Scores, % of improvement from Oral Ibuprofen [1, 7]: −4.6% | WOMAC Difficulty Performing Daily Activities Subscale Scores, % of improvement from Placebo [1, 7]: −8.9% | WOMAC Difficulty Performing Daily Activities Subscale Scores, % of improvement from baseline [1, 7]: −46.1% | WOMAC Difficulty Performing Daily Activities Subscale Scores, Changes from Baseline (LS Mean) [1, 7]: −27.9 mm | WOMAC Difficulty Performing Daily Activities Subscale Scores, Different from oral ibuprofen (LS Mean) [1, 7]: −2.7 mm | WOMAC Difficulty Performing Daily Activities Subscale Scores, Different from placebo (LS Mean) [1, 7]: −6.0 mm | WOMAC Difficulty Performing Daily Activities Subscale Scores, Week 12 (LS Mean) [1, 7]: 32.6 mm | WOMAC Difficulty Performing Daily Activities Subscale Scores, % of improvement from Oral Ibuprofen [1, 8]: −11.0% | WOMAC Difficulty Performing Daily Activities Subscale Scores, % of improvement from Placebo [1, 8]: −15.3% | WOMAC Difficulty Performing Daily Activities Subscale Scores, % of improvement from baseline [1, 8]: −52.5% | WOMAC Difficulty Performing Daily Activities Subscale Scores, Changes from Baseline (LS Mean) [1, 8]: −31.4 mm | WOMAC Difficulty Performing Daily Activities Subscale Scores, Different from placebo (LS Mean) [1, 8]: −9.5 mm | WOMAC Difficulty Performing Daily Activities Subscale Scores, Week 12 (LS Mean) [1, 8]: 28.3 mm | Subject's satisfaction rate (SGIC good and very good) ([2]; 17.5 mg/knee BID, first 130 subjects): 73.7% | SGIC: Good and Very good [2, 9]: 39.1% | SGIC: Poor and Very Poor [2, 9]: 4.3% | SGIC: fair [2, 9]: 56.5% | SGIC: Good and Very good [2, 10]: 37.5% | SGIC: Poor and Very Poor [2, 10]: 16.7% | SGIC: fair [2, 10]: 45.8% | SGIC: Good and Very good [2, 5]: 73.7% | SGIC: Poor and Very Poor [2, 5]: 5.3% | SGIC: fair [2, 5]: 21.1% | SGIC, Good and Very good ([2]; 4.375 mg/knee BID, n = 49): 32.7% | SGIC, Poor and Very Poor ([2]; 4.375 mg/knee BID, n = 49): 10.2% | SGIC, fair ([2]; 4.375 mg/knee BID, n = 49): 57.1% | SGIC, Good and Very good ([2]; 8.75 mg/knee BID, n = 54): 46.3% | SGIC, Poor and Very Poor ([2]; 8.75 mg/knee BID, n = 54): 16.7% | SGIC, fair ([2]; 8.75 mg/knee BID, n = 54): 37.0% | SGIC, Good and Very good ([2]; 17.5 mg/knee BID, n = 52): 61.5% | SGIC, Poor and Very Poor ([2]; 17.5 mg/knee BID, n = 52): 5.8% | SGIC, fair ([2]; 17.5 mg/knee BID, n = 52): 32.7% | IGADS: Good and Very good ([3]; 4.375 mg/knee BID (n = 23)): 43.5% | IGADS: Poor and Very Poor ([3]; 4.375 mg/knee BID (n = 23)): 4.3% | IGADS: fair ([3]; 4.375 mg/knee BID (n = 23)): 53.2% | IGADS: Good and Very good ([3]; 8.75 mg/knee BID (n = 24)): 41.7% | IGADS: Poor and Very Poor ([3]; 8.75 mg/knee BID (n = 24)): 4.2% | IGADS: fair ([3]; 8.75 mg/knee BID (n = 24)): 54.2% | IGADS: Good and Very good ([3]; 17.5 mg/knee BID (n = 19)): 68.4% | IGADS: Poor and Very Poor ([3]; 17.5 mg/knee BID (n = 19)): 0% | IGADS: fair ([3]; 17.5 mg/knee BID (n = 19)): 31.6% | IGADS, Good and Very good ([3]; 4.375 mg/knee BID, n = 49): 40.8% | IGADS, Poor and Very Poor ([3]; 4.375 mg/knee BID, n = 49): 8.2% | IGADS, fair ([3]; 4.375 mg/knee BID, n = 49): 51.0% | IGADS, Good and Very good ([3]; 8.75 mg/knee BID, n = 54): 48.1% | IGADS, Poor and Very Poor ([3]; 8.75 mg/knee BID, n = 54): 7.4% | IGADS, fair ([3]; 8.75 mg/knee BID, n = 54): 44.4% | IGADS, Good and Very good ([3]; 17.5 mg/knee BID, n = 52): 63.5% | IGADS, Poor and Very Poor ([3]; 17.5 mg/knee BID, n = 52): 1.9% | IGADS, fair ([3]; 17.5 mg/knee BID, n = 52): 34.6% | IART: Good and Very good ([4]; 4.375 mg/knee BID (n = 23)): 39.1% | IART: Poor and Very Poor ([4]; 4.375 mg/knee BID (n = 23)): 4.3% | IART: fair ([4]; 4.375 mg/knee BID (n = 23)): 56.5% | IART: Good and Very good ([4]; 8.75 mg/knee BID (n = 24)): 37.5% | IART: Poor and Very Poor ([4]; 8.75 mg/knee BID (n = 24)): 12.5% | IART: fair ([4]; 8.75 mg/knee BID (n = 24)): 50.0% | IART: Good and Very good ([4]; 17.5 mg/knee BID (n = 19)): 57.9% | IART: Poor and Very Poor ([4]; 17.5 mg/knee BID (n = 19)): 5.3% | IART: fair ([4]; 17.5 mg/knee BID (n = 19)): 36.8% | IART, Good and Very good ([4]; 4.375 mg/knee BID, n = 49): 40.8% | IART, Poor and Very Poor ([4]; 4.375 mg/knee BID, n = 49): 10.2% | IART, fair ([4]; 4.375 mg/knee BID, n = 49): 49.0% | IART, Good and Very good ([4]; 8.75 mg/knee BID, n = 54): 50.0% | IART, Poor and Very Poor ([4]; 8.75 mg/knee BID, n = 54): 13.0% | IART, fair ([4]; 8.75 mg/knee BID, n = 54): 37.0% | IART, Good and Very good ([4]; 17.5 mg/knee BID, n = 52): 61.5% | IART, Poor and Very Poor ([4]; 17.5 mg/knee BID, n = 52): 3.8% | IART, fair ([4]; 17.5 mg/knee BID, n = 52): 34.6%
